Assay [1] has as its target T1, Cholinesterase (Equus caballus, UniProt P81908). Put plainly: Non-competitive inhibition of equine serum BuChE using S-butyrylthiocholine iodide as substrate by Lineweaver-Burk reciprocal plot analysis.
For assay [2], the target named is Cyclin-dependent kinase 1/cyclin B1 (Homo sapiens, UniProt P06493). Briefly: Inhibition of CDK1/cyclin-B (unknown origin). The assay is classed as protein-complex assay.
The target of the next assay is CDK6/cyclin D2 (Homo sapiens, UniProt P30279+Q00534). Briefly: Inhibition of CDK6/cyclin-D2 (unknown origin). Format: protein-complex assay.
CDK6/cyclin D2, sequence (Q00534 whole entry): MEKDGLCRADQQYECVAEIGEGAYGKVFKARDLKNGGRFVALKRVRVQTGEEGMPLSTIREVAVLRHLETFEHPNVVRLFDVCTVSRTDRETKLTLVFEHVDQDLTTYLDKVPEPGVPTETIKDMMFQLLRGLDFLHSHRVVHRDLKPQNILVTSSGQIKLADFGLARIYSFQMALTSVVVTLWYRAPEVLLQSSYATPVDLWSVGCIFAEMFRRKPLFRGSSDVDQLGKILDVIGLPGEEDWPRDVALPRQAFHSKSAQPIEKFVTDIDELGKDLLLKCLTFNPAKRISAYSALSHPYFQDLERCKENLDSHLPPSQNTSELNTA
CDK6/cyclin D2, sequence (P30279 whole entry): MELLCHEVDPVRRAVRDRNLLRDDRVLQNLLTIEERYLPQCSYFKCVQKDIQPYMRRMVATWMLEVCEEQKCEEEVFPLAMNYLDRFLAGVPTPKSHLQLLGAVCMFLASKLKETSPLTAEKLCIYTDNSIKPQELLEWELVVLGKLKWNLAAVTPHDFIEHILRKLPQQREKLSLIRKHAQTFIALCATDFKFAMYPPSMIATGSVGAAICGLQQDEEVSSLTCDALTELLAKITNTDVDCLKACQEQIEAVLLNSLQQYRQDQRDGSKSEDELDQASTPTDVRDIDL
Assay [3] addresses T2, Acetylcholinesterase (Electrophorus electricus, UniProt O42275). Put plainly: Inhibition of Electrophorus electricus AChE using acetylthiocholine iodide as substrate after 30 mins by Ellman's method. (DTNB colorimetry detects thiols as they appear.)
Assay [4] deals with Acetylcholinesterase (Electrophorus electricus) (UniProt O42275). Put plainly: Inhibition of Electrophorus electricus AChE using acetylthiocholine iodide as substrate at 10 uM after 30 mins by Ellman's method.
Acetylcholinesterase (Electrophorus electricus), sequence (O42275 24-633 limits assumed): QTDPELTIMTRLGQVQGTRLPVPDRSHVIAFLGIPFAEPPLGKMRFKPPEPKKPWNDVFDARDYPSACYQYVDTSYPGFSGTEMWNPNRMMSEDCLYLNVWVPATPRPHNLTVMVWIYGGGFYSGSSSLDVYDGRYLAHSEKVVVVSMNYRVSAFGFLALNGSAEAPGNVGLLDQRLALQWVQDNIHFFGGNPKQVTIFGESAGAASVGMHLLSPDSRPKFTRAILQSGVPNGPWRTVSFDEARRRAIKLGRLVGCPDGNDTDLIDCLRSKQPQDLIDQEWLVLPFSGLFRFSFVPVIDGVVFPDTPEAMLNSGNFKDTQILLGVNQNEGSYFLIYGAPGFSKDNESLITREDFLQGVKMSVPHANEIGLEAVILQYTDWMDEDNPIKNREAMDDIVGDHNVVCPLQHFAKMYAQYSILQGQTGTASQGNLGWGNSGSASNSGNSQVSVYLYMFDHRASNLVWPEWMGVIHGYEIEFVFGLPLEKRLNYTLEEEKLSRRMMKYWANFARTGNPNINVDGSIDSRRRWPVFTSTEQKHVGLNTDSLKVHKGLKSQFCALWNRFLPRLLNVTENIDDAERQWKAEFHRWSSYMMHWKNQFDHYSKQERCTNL
The target of assay [5] is T1, Cholinesterase. Briefly: Inhibition of equine serum BuChE using S-butyrylthiocholine iodide as substrate after 30 mins by Ellman's method.
In another assay the target is CDK4/Cyclin D3 (Homo sapiens, UniProt P11802). Put plainly: Inhibition of CDK4/cyclin-D3 (unknown origin). The assay is classed as protein-complex assay.
CDK4/Cyclin D3, sequence (P11802 whole entry): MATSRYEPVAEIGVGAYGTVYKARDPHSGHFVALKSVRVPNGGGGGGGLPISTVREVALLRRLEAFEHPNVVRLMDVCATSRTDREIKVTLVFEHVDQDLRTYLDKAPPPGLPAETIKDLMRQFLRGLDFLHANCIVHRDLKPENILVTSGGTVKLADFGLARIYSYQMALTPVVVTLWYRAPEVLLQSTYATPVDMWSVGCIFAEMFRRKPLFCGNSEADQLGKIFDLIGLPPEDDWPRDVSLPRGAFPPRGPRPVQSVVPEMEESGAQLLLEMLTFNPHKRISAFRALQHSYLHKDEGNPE
CDK4/Cyclin D3, sequence (P30281 whole entry, further chain): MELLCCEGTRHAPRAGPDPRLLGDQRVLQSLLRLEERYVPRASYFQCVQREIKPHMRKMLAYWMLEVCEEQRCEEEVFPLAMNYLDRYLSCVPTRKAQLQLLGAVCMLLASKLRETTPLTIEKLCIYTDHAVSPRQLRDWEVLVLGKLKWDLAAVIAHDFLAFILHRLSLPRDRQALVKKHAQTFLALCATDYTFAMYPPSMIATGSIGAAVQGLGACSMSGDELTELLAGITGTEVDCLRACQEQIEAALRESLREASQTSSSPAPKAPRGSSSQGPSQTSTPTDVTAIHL
Assay [6] concerns the target T2, Acetylcholinesterase. Briefly: Non-competitive inhibition of Electrophorus electricus AChE using acetylthiocholine iodide as substrate by Lineweaver-Burk reciprocal plot analysis.
Assay [7] concerns the target Cyclin-dependent kinase 2/cyclin E1 (Homo sapiens, UniProt P24941). Briefly: Inhibition of CDK2/cyclin-E (unknown origin). Format: protein-complex assay.
In assay [8] the target is Cyclin-dependent kinase 4/cyclin D2 (Homo sapiens, UniProt P11802+P30279). Briefly: Inhibition of CDK4/cyclin-D2 (unknown origin). The assay is classed as protein-complex assay.
Cyclin-dependent kinase 4/cyclin D2, sequence (P11802 whole entry): as the sequence (P11802 whole entry) above
Cyclin-dependent kinase 4/cyclin D2, sequence (P30279 whole entry): as the sequence (P30279 whole entry) above
The target of assay [9] is Cyclin-dependent kinase 5/CDK5 activator 1 (Homo sapiens, UniProt Q00535). Briefly: Inhibition of CDK5/p-35 (unknown origin). The assay is classed as protein-complex assay.
Cyclin-dependent kinase 5/CDK5 activator 1, sequence (Q00535 whole entry): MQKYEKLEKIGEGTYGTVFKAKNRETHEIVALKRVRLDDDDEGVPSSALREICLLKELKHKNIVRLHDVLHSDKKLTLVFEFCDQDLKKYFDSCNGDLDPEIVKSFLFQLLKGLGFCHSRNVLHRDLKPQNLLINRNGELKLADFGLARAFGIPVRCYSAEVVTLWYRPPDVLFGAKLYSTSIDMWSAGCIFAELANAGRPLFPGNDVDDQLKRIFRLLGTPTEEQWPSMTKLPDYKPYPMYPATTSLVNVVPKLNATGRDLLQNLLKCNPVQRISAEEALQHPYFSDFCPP
Cyclin-dependent kinase 5/CDK5 activator 1, sequence (Q15078 whole entry, further chain): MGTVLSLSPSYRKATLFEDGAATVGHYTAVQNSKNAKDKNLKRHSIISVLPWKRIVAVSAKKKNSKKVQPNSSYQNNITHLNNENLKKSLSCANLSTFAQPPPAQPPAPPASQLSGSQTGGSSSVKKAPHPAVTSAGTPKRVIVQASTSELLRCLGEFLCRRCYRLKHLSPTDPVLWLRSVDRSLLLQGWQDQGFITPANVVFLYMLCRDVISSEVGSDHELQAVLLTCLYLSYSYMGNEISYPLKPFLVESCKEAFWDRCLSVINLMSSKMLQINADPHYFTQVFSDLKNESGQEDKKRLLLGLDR
Assay [10] concerns the target Acetylcholinesterase (Homo sapiens) (UniProt P22303). Put plainly: Ratio of physostigmine IC50 to compound IC50 for acetylcholinesterase (unknown origin).

Structures are written as SMILES. Active and inactive are the calls of the source. No cut-off for these calls is given here.

As a reminder, the Ki is a dissociation constant, usually derived from enzyme kinetics or from competition with a known ligand. Low readings indicate tighter binding, high ones weaker binding. Usually IC50 stands for the concentration that inhibits the measured activity by half. Lower therefore signals greater potency. As usually defined, the inhibition is how much of the control response was suppressed.

T2 sequence (O42275 whole entry): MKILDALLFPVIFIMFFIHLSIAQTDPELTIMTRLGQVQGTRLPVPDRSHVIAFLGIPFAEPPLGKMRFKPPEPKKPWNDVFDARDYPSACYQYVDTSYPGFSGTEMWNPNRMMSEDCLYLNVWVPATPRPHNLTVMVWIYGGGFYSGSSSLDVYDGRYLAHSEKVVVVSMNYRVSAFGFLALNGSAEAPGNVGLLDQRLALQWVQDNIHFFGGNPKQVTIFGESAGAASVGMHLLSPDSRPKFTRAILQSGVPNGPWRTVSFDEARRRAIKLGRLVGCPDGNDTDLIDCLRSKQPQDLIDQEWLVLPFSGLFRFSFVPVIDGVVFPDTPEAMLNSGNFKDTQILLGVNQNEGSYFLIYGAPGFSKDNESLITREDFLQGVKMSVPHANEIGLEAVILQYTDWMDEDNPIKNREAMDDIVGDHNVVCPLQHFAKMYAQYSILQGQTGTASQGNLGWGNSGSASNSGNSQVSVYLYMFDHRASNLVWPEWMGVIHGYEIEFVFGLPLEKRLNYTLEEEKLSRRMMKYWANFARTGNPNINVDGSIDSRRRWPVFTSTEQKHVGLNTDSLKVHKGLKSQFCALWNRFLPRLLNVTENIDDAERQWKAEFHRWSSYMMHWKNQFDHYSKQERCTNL
T1 sequence (P81908 whole entry): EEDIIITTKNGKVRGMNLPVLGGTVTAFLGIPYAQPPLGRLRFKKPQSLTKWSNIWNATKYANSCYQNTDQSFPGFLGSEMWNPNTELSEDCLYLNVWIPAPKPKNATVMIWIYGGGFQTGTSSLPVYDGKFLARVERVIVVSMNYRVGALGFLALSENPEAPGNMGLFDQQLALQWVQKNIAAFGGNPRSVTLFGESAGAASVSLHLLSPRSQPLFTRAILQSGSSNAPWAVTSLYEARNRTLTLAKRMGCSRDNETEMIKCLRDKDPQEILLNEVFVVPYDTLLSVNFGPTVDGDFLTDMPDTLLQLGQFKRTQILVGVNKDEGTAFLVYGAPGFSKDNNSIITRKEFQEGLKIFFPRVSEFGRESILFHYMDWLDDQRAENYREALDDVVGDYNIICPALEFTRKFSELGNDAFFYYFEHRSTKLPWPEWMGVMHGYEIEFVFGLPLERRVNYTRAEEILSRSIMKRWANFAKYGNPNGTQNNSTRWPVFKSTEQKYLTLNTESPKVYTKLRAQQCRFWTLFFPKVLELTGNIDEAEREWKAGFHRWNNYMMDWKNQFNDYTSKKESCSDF
Cyclin-dependent kinase 1/cyclin B1, sequence (P06493 whole entry): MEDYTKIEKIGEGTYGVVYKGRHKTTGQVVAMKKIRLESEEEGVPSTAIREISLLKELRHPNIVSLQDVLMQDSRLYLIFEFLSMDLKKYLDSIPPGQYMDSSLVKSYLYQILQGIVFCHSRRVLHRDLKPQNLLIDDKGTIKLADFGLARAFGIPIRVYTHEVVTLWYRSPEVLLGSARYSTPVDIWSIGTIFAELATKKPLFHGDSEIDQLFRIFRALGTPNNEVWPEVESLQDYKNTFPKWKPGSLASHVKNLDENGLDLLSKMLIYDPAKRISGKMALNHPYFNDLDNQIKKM
Cyclin-dependent kinase 1/cyclin B1, sequence (P14635 whole entry, further chain): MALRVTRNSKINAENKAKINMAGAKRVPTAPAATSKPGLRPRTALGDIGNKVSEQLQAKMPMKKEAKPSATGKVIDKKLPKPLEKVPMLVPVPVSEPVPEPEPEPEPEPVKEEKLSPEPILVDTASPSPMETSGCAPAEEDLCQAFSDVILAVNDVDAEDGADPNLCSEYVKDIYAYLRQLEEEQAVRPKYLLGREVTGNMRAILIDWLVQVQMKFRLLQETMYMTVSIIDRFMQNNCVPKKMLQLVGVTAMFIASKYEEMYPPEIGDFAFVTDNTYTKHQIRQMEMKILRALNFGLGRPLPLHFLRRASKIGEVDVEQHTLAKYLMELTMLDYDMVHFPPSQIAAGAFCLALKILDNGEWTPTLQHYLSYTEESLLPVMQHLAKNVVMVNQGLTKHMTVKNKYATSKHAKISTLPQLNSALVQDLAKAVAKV

`O=C1c2ccccc2-[n+]2ccc3c([nH]c4ccccc43)c21` [FASCAPLYSIN]: the Ki on Cholinesterase [1] stood at 48.5 µM; on Acetylcholinesterase [6] it was 2.28 µM. The IC50 in [2] was more than 100 µM; at CDK6/cyclin D2 it was more than 50 µM; against Acetylcholinesterase [3] it was 1.49 µM; against Cholinesterase [5], 90.5 µM; against CDK4/Cyclin D3 it was more than 100 µM; in [7] it was more than 50 µM. Further, the values for the IC50 in [8] and in [9] were more than 100 µM and 20 µM, respectively. Moreover, the inhibition in assay [4] came out at 86%.
On to `COC(=O)C1=CO[C@@H](C)[C@H]2C[n+]3ccc4c([nH]c5ccccc54)c3C[C@H]12`, for which the Ratio IC50 in [10] is 10.
Turning to `O=C(c1ccccc1Cl)c1nccc2c1[nH]c1ccccc12`, the inhibition entry in assay [4] was “inactive”.
